ChEMBL document CHEMBL1135404, “Identification of a nonsteroidal liver X receptor agonist through parallel array synthesis of tertiary amines” (J Med Chem, 2002)
pEC50: −log10 of the molar value. Activity calls are given as the source filed them. The rule behind the calls is not given here.

Tests used:
[1] = target: T1, Oxysterols receptor LXR-alpha (Homo sapiens) (UniProt Q13133)
T1 sequence (whole entry): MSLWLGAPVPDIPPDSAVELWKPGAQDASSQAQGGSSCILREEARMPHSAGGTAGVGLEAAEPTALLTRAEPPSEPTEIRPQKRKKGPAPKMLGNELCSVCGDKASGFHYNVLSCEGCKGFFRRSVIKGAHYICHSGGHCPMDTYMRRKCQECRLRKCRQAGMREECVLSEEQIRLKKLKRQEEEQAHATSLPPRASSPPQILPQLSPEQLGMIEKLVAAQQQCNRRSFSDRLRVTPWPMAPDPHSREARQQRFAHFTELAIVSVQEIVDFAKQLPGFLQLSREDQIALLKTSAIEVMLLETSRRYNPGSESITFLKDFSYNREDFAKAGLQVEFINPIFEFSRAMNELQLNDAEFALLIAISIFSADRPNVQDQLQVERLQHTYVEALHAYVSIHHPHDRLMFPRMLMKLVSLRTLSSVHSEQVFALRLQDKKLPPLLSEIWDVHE
Description: Relative efficacy compared to 24(S),25-epoxy cholesterol in LXR alpha-Gal4 receptor gene assay

[2] = target: T1, Oxysterols receptor LXR-alpha (Homo sapiens); remark: listed apart in the source
Description: Relative efficacy compared to 24(S),25-epoxy cholesterol in Liver X receptor-alpha ligand-sensing assay

[3] = target: T2, Oxysterols receptor LXR-alpha (Homo sapiens, UniProt Q13133); assay: Ligand-dependent recruitment of steroid receptor co-activator 1 (SRC1) to Liver X receptor-alpha
T2 sequence (Q13133 whole entry): T1 sequence (whole entry)

[4] = target: T2, Oxysterols receptor LXR-alpha; assay: Effective concentration in LXR alpha-Gal4 receptor gene assay
[5] = Cmax in mice after 10 mg/kg oral dose; assay type: ADME, organism-based; set-up: dose 10 mg/kg, route oral; settings: mouse, in vivo
[6] = Oral bioavailability after administration of a dose of 10 mg/kg; assay type: ADME, organism-based; settings: in vivo
[7] = the half-life (t1/2) in mice after a dose of 10 mg/kg; assay type: ADME, organism-based; set-up: dose 10 mg/kg; settings: mouse, in vivo
[8] = target: T1, Oxysterols receptor LXR-alpha (Homo sapiens); assay: Effective concentration in LXR alpha-Gal4 receptor gene assay; inactive at 10 uM

| RE [1] | RE [2] | pEC50 [3] | pEC50 [4] | IA [8] | Structure (SMILES) | Cmax [5] [ng/mL] | bioavailability [6] [%] | half-life [7] [h] |
| --- | --- | --- | --- | --- | --- | --- | --- | --- |
| 0.6 | 0.7 | 6.18 | 5.40 |  | COc1ccc(CN(CCCOc2cccc(CC(N)=O)c2)CC(c2ccccc2)c2ccccc2)c(OC)c1 |  |  |  |
| 0.5 | 0.7 | 6.60 | 6.04 |  | COc1ccc(CN(CCCOc2cccc(CC(N)=O)c2)CC(c2ccccc2)c2ccccc2)cc1F |  |  |  |
| 0.4 | 0.9 | 6.72 | 6.15 |  | COc1ccc(CN(CCCOc2cccc(CC(N)=O)c2)CC(c2ccccc2)c2ccccc2)c(F)c1 |  |  |  |
| 0.3 | 0.7 | 7.07 | 6.19 |  | NC(=O)Cc1cccc(OCCCN(Cc2cccc(C(F)(F)F)c2)CC(c2ccccc2)c2ccccc2)c1 |  |  |  |
| 0.4 | 0.9 | 7.07 | 6.02 |  | NC(=O)Cc1cccc(OCCCN(Cc2ccc(F)c(C(F)(F)F)c2)CC(c2ccccc2)c2ccccc2)c1 |  |  |  |
|  | 0.8 | 6.59 |  | inactive | COc1ccc(CN(CCCOc2cccc(CC(N)=O)c2)CC(c2ccccc2)c2ccccc2)cc1 |  |  |  |
| 0.9 | 0.8 | 6.07 | 5.10 |  | COc1ccc(CN(CCCOc2cccc(CC(=O)O)c2)CC(c2ccccc2)c2ccccc2)cc1 |  |  |  |

The remaining lines, values behind:

| Structure (SMILES) | RE [1] | RE [2] | pEC50 [3] | pEC50 [4] | IA [8] | Cmax [5] [ng/mL] | bioavailability [6] [%] | half-life [7] [h] |
| --- | --- | --- | --- | --- | --- | --- | --- | --- |
| O=S(=O)(c1ccccc1)N(CC(F)(F)F)c1ccc(C(O)(C(F)(F)F)C(F)(F)F)cc1 | 2.5 | 1 |  |  |  |  |  |  |
| O=C(O)Cc1cccc(OCCCN(Cc2cccc(C(F)(F)F)c2Cl)CC(c2ccccc2)c2ccccc2)c1 | 1.7 | 1 | 6.90 | 6.72 |  | 12700 | 70 | 2 |
| COc1ccc(CN(CCCOc2cccc(C(N)=O)c2)CC(c2ccccc2)c2ccccc2)cc1OC |  | 0.2 | 6.59 |  |  |  |  |  |
| C[C@H](CC[C@@H]1OC1(C)C)[C@H]1CC[C@H]2[C@@H]3CC=C4C[C@@H](O)CC[C@]4(C)[C@H]3CC[C@]12C [24(S),25-EPOXYCHOLESTEROL] | 1 | 1 | 7.02 | 5.52 |  |  |  |  |
| NC(=O)Cc1cccc(OCCCN(Cc2cccc(C(F)(F)F)c2Cl)CC(c2ccccc2)c2ccccc2)c1 | 1.5 | 1.1 | 7.35 | 6.37 |  |  |  |  |
